pIC50: −log10 of the molar value. Converted amounts (≈) assume the structure as drawn. Some results are limits rather than exact numbers.

Data set [1] is described as follows: Stability in human liver microsomes assessed as parent compound remaining at 1 uM after 15 mins by LC-MS/MS analysis. The conditions noted are these: read-out: Stability. It counts as ADME, microsome.
Data set [2] addresses T1, Disintegrin and metalloproteinase domain-containing protein 17 (Homo sapiens, UniProt P78536). The experiment in a line: Inhibition of recombinant human TACE catalytic domain using Mca-Pro-Leu-Ala-Gln-Ala-Val-Dpa-Arg-Ser-Ser-Ser-Arg-NH2 as substrate after 2 hrs by fluorescence assay.
Data set [3] has as its target Disintegrin and metalloproteinase domain-containing protein 17 (Sus scrofa, UniProt O77636). The experiment in a line: Inhibition of porcine spleen TACE using Mca-Pro-LeuAla-Gln-Ala-Val-Dpa-Arg-Ser-Ser-Ser-[…]-NH2 as substrate by fluorescence assay.
Data set [4] has as its target T1, Disintegrin and metalloproteinase domain-containing protein 17. The experiment in a line: Inhibition of TACE in human PBMC assessed as inhibition of LPS-stimulated TNFalpha production.
Data set [5] has the same target. The experiment in a line: Inhibition of TACE in NHEK assessed as reduction in LPS/TPA-stimulated TNFalpha production preincubated for 1 hr followed by LPS/TPA stimulation for 24 hrs by HTRF assay.
Data set [6] can be described thus: Aqueous solubility of the compound. The format is physicochemical.
The target in data set [7] is Disintegrin and metalloproteinase domain-containing protein 17 (Mus musculus, UniProt Q9Z0F8). Nature of the data set: Inhibition of TACE in mouse RAW264.7 cells assessed as inhibition of LPS-stimulated TNFalpha production pretreated for 1 hr followed by LPS stimulation for 4 hrs by ELISA. The format is cell-based. The conditions noted are these: read-out: IC50.
The target of data set [8] is T1, Disintegrin and metalloproteinase domain-containing protein 17. Nature of the data set: Inhibition of recombinant TACE catalytic domain (unknown origin) using Abz-LAQAVRSSSR-Dpa as substrate preincubated for 10 mins followed by substrate addition measured after 10 mins by FRET assay. The note with it: for IC50: read-out: pIC50 (converted); for pIC50: read-out: IC50.

T1 sequence (P78536 whole entry, the tested form may be a part): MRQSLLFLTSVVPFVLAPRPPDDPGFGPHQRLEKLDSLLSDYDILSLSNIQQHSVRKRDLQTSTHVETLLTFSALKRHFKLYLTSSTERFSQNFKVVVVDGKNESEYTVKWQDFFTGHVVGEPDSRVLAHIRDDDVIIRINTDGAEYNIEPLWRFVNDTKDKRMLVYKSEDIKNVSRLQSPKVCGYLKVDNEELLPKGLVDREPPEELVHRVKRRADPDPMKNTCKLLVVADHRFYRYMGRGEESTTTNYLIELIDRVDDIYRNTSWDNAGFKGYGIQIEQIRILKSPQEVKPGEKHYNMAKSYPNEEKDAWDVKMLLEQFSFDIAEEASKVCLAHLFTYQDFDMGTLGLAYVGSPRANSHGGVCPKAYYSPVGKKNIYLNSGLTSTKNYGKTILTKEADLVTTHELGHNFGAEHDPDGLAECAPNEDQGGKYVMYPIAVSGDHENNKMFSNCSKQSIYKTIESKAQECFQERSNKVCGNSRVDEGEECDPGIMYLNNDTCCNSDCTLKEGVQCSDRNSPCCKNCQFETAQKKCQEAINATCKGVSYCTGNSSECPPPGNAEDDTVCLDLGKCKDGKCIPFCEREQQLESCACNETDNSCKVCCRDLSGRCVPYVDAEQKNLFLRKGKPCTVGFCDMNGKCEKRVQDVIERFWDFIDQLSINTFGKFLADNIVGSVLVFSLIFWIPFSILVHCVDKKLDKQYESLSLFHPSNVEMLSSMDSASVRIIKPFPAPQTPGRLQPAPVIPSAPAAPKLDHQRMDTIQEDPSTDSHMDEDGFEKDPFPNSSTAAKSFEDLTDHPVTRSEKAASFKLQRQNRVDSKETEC
Sequence of Disintegrin and metalloproteinase domain-containing protein 17 (Mus musculus, UniProt Q9Z0F8) (Q9Z0F8 whole entry, the tested form may be a part): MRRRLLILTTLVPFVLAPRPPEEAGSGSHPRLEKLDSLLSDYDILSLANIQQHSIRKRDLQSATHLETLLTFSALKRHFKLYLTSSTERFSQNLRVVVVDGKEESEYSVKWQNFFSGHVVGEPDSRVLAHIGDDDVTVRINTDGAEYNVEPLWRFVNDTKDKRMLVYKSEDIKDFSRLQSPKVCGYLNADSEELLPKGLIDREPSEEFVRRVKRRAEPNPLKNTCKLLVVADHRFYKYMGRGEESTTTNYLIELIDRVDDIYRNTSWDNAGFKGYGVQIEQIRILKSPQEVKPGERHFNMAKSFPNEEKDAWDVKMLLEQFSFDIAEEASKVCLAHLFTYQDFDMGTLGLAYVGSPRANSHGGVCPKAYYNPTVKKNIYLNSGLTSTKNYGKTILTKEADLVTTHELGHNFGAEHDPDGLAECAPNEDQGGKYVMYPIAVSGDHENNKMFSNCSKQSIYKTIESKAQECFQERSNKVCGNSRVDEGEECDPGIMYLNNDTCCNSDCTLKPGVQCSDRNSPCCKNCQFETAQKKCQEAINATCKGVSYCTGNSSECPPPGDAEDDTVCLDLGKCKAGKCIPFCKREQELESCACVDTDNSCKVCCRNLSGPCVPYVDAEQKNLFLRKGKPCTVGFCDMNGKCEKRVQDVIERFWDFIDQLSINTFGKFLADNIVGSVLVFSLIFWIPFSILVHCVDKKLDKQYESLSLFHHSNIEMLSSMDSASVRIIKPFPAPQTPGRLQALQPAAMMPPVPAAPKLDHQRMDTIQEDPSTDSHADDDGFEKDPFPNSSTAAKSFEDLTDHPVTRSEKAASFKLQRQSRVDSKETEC
Sequence of Disintegrin and metalloproteinase domain-containing protein 17 (Sus scrofa, UniProt O77636) (O77636 whole entry, the tested form may be a part): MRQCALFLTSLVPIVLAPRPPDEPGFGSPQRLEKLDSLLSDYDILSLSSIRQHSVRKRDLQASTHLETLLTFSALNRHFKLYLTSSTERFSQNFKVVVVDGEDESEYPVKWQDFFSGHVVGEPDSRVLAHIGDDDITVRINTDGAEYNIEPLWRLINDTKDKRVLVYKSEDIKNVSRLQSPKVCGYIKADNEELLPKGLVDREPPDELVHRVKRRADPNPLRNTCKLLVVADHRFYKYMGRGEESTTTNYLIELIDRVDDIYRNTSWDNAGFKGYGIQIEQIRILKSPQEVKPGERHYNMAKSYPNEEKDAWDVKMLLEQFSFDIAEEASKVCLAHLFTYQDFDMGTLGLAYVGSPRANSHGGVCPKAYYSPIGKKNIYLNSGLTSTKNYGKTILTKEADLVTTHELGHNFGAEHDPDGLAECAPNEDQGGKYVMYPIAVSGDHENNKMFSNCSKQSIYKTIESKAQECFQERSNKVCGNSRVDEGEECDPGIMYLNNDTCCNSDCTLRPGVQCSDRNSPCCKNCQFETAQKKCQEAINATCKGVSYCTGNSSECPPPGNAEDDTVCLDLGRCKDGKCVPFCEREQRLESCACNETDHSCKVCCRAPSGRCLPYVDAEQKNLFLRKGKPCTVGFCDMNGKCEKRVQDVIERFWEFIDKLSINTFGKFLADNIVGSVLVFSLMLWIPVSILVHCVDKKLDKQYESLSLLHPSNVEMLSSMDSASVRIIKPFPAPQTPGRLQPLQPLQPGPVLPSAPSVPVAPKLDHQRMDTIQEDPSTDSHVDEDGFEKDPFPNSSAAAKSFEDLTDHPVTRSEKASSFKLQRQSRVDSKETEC

As for `Cc1cc(COc2ccc(S(=O)(=O)N3CCN(C(=O)C4CCC4)C(C(=O)NO)C3)cc2)c2c(n1)CCCC2` (stereo not given), the remaining at […], 1 µM in data set [1] is 83%. In data set [2], the pIC50 is 7.72.
With `CCOc1cc(COc2ccc3c(c2)NCCN([C@H](C)C(=O)NO)S3)cc(OCC)c1`, the pIC50 in data set [3] was 7.09; in data set [4] it was 5.35.
On to `Cc1cc(COc2ccc(S(=O)(=O)N3CCN(C(=O)C(C)C)C(C(=O)NO)C3)cc2)c2c(n1)CCCC2` (stereo not given), for which the remaining at […], 1 µM in data set [1] worked out at 91%. The pIC50 in data set [2] is 7.59.
The corresponding values for `Cc1cc(COc2ccc(S(=O)(=O)N3CCN(C(=O)c4ccccc4)C(C(=O)NO)C3)cc2)c2c(n1)CCCC2` (stereo not given) are 85% and 7.80.
For the compound `Cc1cc(COc2ccc(S(=O)(=O)N3CCCC(C(=O)NO)C3)cc2)c2ccccc2n1` (stereo not given), the results for the pIC50 in data set [5] and in data set [2] were below 5.00 and 7.22, respectively. The compound further returned a solubility in data set [6] below 1 µM.
Regarding `CCOc1cc(COc2ccc3c(c2)NCCN([C@@H](C(=O)NO)C(C)C)S3)cc(OCC)c1`, the negative-log IC50 (pIC50) in data set [3] is 7.29; in data set [4] it was 5.09.
In the case of `Cc1cc(COc2ccc(S(=O)(=O)NC[C@@H](C(=O)NO)N3CCCCC3)cc2)c2c(n1)CCCC2`, the pIC50 was 7.22 in data set [5] and 8.22 in data set [2].
As to `C[C@H](C(=O)NO)N1CCNc2cc(Oc3cccc([N+](=O)[O-])c3)ccc2S1`, the negative logarithm of the IC50 (pIC50) in data set [3] was 6.89; in data set [4] it was 6.33.
The corresponding values for `COc1cc(COc2ccc3c(c2)NCCN([C@H](CC(C)C)C(=O)NO)S3)cc(OC)c1` are 7.77 and 5.27.
The corresponding values for `Cc1nc(COc2ccc3c(c2)NCCN([C@@H](C(=O)NO)C(C)C)S3)sc1C` are 6.54 and 4.61.
For `COC(=O)N1CCN(S(=O)(=O)c2ccc(OCc3cc(C)nc4c3CCCC4)cc2)CC1C(=O)NO` (stereo not given), the remaining at […], 1 µM in data set [1] stood at 100%. The pIC50 in data set [2] is 7.40.
For `Cc1cc(COc2ccc(S(=O)(=O)N3CCN(C4CCC4)C(C(=O)NO)C3)cc2)c2c(n1)CCCC2` (stereo not given), the pIC50 in data set [5] was below 5.00; in data set [2] it was 6.82. For the same compound, the remaining at […], 1 µM in data set [1] amounted to 54%.
For `CC(C)C[C@H](C(=O)NO)N1CCNc2cc(O)ccc2S1`, the figures for the negative-log IC50 (pIC50) in data set [3] and in data set [4] were 7.05 and 5.02, respectively.
Consider `CCOc1cc(COc2ccc3c(c2)NCCN([C@H](CCC(=O)OC)C(=O)NO)S3)cc(OCC)c1`, for which the pIC50 was 6.62 in data set [3] and 5.21 in data set [4].
Take `C[C@H](C(=O)NO)N1CCNc2cc(OCc3cc(Cl)cc(Cl)c3)ccc2S1`: the values for the pIC50 in data set [3] and in data set [4] were 6.82 and 6.03, respectively.
Consider `Cc1cc(COc2ccc(S(=O)(=O)N3CCN(C)C(C(=O)NO)C3)cc2)c2c(n1)CCCC2` (stereo not given), for which the remaining at […], 1 µM in data set [1] is 80%. The pIC50 in data set [2] was 6.80.
Consider `COc1cc(COc2ccc3c(c2)NCCN([C@@H](C(=O)NO)C(C)C)S3)cc(OC)c1`, for which the pIC50 is 8.00 in data set [3] and 5.40 in data set [4].
Turning to `COC(=O)CC[C@H](C(=O)NO)N1CCNc2cc(OCc3cc(OC)cc(OC)c3)ccc2S1`, the pIC50 in data set [3] was 6.75; in data set [4], 5.14.
Regarding `C[C@H](C(=O)NO)N1CCNc2cc(Oc3ccc(C(F)(F)F)cc3)ccc2S1`, the figures for the negative logarithm of the IC50 (pIC50) in data set [3] and in data set [4] were 6.12 and 6.08, respectively.
Consider `CC(C)C[C@H](C(=O)NO)N1CCNc2cc(OCc3ccccc3)ccc2S1`, for which the values for the pIC50 in data set [3] and in data set [4] were 6.75 and 6.46, respectively.
In the same order, the values of `COC(=O)CCC[C@H](C(=O)NO)N1CCNc2cc(OCc3cc(OC)cc(OC)c3)ccc2S1` are 8.00 and 6.05.
Consider `Cc1cc(COc2ccc(S(=O)(=O)N3CCN(S(C)(=O)=O)C(C(=O)NO)C3)cc2)c2c(n1)CCCC2` (stereo not given), for which the remaining at […], 1 µM in data set [1] is 88%. Moreover, in data set [2], the pIC50 was 7.54.
For the compound `Cc1cc(COc2ccc(S(=O)(=O)N3CCN(C(=O)CC(C)C)C(C(=O)NO)C3)cc2)c2c(n1)CCCC2` (stereo not given), in data set [1], the remaining at […], 1 µM came to 64%. Also, the pIC50 in data set [2] is 7.64.
Consider `COc1cc(COc2ccc3c(c2)NCCN([C@H](C)C(=O)NO)S3)cc(OC)c1`, for which the results for the negative-log IC50 (pIC50) in data set [3] and in data set [4] were 7.57 and 6.11, respectively.
Take `Cc1cc(COc2ccc(S(=O)(=O)N[C@@H]3COC[C@@H]3C(=O)NO)cc2)c2ccccc2n1`: in data set [7], the pIC50 was 7.92. For the same compound, the IC50 in data set [8] was 0.631 nM.
Turning to `CC(=O)N1C[C@@H](S(=O)(=O)c2ccc(OCc3cc(C)nc4c3CCCC4)cc2)C[C@H]1C(=O)NO`, the pIC50 in data set [5] is below 5.00; in data set [2] it was 6.46.
Consider `COc1cc(COc2ccc3c(c2)NCCN([C@H](CCCCNS(C)(=O)=O)C(=O)NO)S3)cc(OC)c1`, for which the figures for the pIC50 in data set [3] and in data set [4] were 8.30 and 5.72, respectively.
Consider `Cc1cc(COc2ccc(S(=O)(=O)N[C@@H]3CN(C(=O)OC(C)(C)C)C[C@@H]3C(=O)NO)cc2)c2ccccc2n1` (relative stereo), for which the values for the pIC50 in data set [7] and in data set [8] were 7.42 and 9.22, respectively.
As for `Cc1cc(COc2ccc(S(=O)(=O)N3CCC(C)(C(=O)NO)C3)cc2)c2ccccc2n1` (stereo not given), the pIC50 is below 5.00 in data set [5] and 7.46 in data set [2]. In addition, the solubility in data set [6] came to 41 µM (≈ 18.7 µg/mL).
Consider `Cc1cc(COc2ccc(S(=O)(=O)N3Cc4ccccc4C(C(=O)NO)C3)cc2)c2ccccc2n1` (stereo not given), for which the pIC50 in data set [5] was below 5.00; in data set [2], 7.08.
In the same order, the values of `Cc1cc(COc2ccc(S(=O)(=O)N3CCC(C(=O)NO)C3)cc2)c2c(n1)CCCC2` (stereo not given) are below 5.00 and 6.68.
For the compound `Cc1cc(COc2ccc(S(=O)(=O)N[C@@H]3CCN(C(C)C)C[C@]3(C)C(=O)NO)cc2)c2ccccc2n1`, in data set [7], the pIC50 was 6.00. The IC50 in data set [8] was 200 nM.
On to `CCOc1cc(COc2ccc3c(c2)NCCN([C@H](CCCC(=O)OC)C(=O)NO)S3)cc(OCC)c1`, for which the values for the pIC50 in data set [3] and in data set [4] were 7.89 and 5.96, respectively.
`CCC(=O)N1CCN(S(=O)(=O)c2ccc(OCc3cc(C)nc4c3CCCC4)cc2)CC1C(=O)NO` (stereo not given): the remaining at […], 1 µM in data set [1] came to 100%. In addition, the pIC50 in data set [2] is 7.64.
With `Cc1cc(COc2ccc(S(=O)(=O)N[C@@H]3CCCC[C@@H]3C(=O)NO)cc2)c2ccccc2n1` (relative stereo), the values for the negative-log IC50 (pIC50) in data set [7] and in data set [8] were 7.10 and 9.00, respectively.
With `Cc1cc(COc2ccc3c(c2)NCCN([C@H](C)C(=O)NO)S3)cc(C)n1`, the negative logarithm of the IC50 (pIC50) in data set [3] is 6.26; in data set [4], 5.54.
Turning to `C[C@H](C(=O)NO)N1CCNc2cc(Oc3ccc([N+](=O)[O-])cc3)ccc2S1`, the values for the pIC50 in data set [3] and in data set [4] were 7.96 and 5.92, respectively.
Regarding `Cc1cc(COc2ccc(S(=O)(=O)N(C)[C@@H]3COC[C@@H]3C(=O)NO)cc2)c2ccccc2n1` (relative stereo), the pIC50 in data set [7] is 6.03. The IC50 in data set [8] is 1.26 nM.
The corresponding values for `CC[C@]1(C(=O)NO)CCC[C@H]1N(C)S(=O)(=O)c1ccc(OCc2cc(C)nc3ccccc23)cc1` are 6.00 and 10 nM.
For `CNC(=O)N1CC[C@@H](NS(=O)(=O)c2ccc(OCc3cc(C)nc4ccccc34)cc2)[C@@](C)(C(=O)NO)C1`, the pIC50 in data set [7] was 6.00. The IC50 in data set [8] is 3.98 nM.
As for `CCNC(=O)N1C[C@H](C(=O)NO)[C@H](NS(=O)(=O)c2ccc(OCc3cc(C)nc4ccccc34)cc2)C1` (relative stereo), the pIC50 in data set [7] was 7.29. Moreover, the IC50 in data set [8] is 1.26 nM.

The values above are taken from ChEMBL document CHEMBL4007472, “Identification of novel TACE inhibitors compatible with topical application” (Bioorg Med Chem Lett, 2017).
